Test results from BindingDB's records for doi:10.1016/j.bmcl.2017.04.068 (Beijing Institute of Pharmacology & Toxicology, 2017).

Test: Inhibition of rilpivirine-resistant HIV1 NL4-3 reverse transcriptase E138K mutant infected in human TZM-b1 cells after 2 days by bright Glo-luciferase reporter gene assay

SMILES | EC50 [nM]
Cc1cc(/C=C/C#N)cc(C)c1Oc1cc(Nc2ccc(C#N)cc2)c(N)cc1C(=O)OCCC#N | 2.9
Cc1cc(/C=C/C#N)cc(C)c1Oc1cc(Nc2ccc(C#N)cc2)c(N)cc1C(=O)N1CC1 | 8.7
COCCOC(=O)c1cc(N)c(Nc2ccc(C#N)cc2)cc1Oc1c(C)cc(/C=C/C#N)cc1C | 4.6
Cc1cc(/C=C/C#N)cc(C)c1Oc1cc(Nc2ccc(C#N)cc2)c(N)cc1C(=O)NCCCO | 23
Cc1cc(/C=C/C#N)cc(C)c1Oc1cc(Nc2ccc(C#N)cc2)c(N)cc1C(=O)NCCCl | 8.5
